{"source": "patent US20140000476A1", "about": "“HYDROPHOBIC AND LIPOPHOBIC COMPOSITION COMPRISING COMPOUNDS HAVING A BISPHOSPHONIC AND THIOL GROUP” (SURFACTIS TECHNOLOGIES, priority 2010, published 2014)", "test": "Contact angle on coated gold", "assay_type": "physicochemical", "conditions": "molecule alone at 10^−3M, soaking 30 minutes", "method": "Degrease the parts by washing in a solvent (acetone or IPA) under ultrasound for 5 minutes then dry the parts under a stream of hot air.\nDeposit • Place the part or parts in a container with an adapted shape • Cover the part or parts with coating solution (thiol, BP or BP/thiol-PFPE mixture), • Incubate between 5 minutes and 360 minutes, • Eliminate the supernatant—remove the part, • The part is drip dried (centrifugation).\nDehydration—Rinsing • The part which received the deposit is placed in an oven at 120° C. for a period ranging from 6 to 15 h (only for rubies and silicon), • The part is brought back to room temperature then immersed in IPA under ultrasound for 2 minutes, • The part is dried under a stream of hot air. […]\nThe lipophobic effect was evaluated by measuring the contact angles of a test oil having surface tension of 33 mN/m on different surfaces.\nAccording to the deposit procedure described in paragraph 3, the materials were treated by the mixture of the thiol molecule I.3. with the BP molecule II.1. dissolved in IPA. The contact angles were measured before and after treatment of the surface. […]\nThe properties of thiol and bisphosphonate molecules in isolation were measured on the surfaces of steel and gold-plated substrates using solutions at 10^−3 M and in isopropanol in accordance with the protocol described in example 3 above, with a soaking time of 5 minutes.", "data": [{"molecule": "O=C(NCCS)C(F)(F)C(F)(F)C(F)(F)C(F)(F)C(F)(F)C(F)(F)C(F)(F)F", "note": "[I.5]", "values": [{"measurement": "contact angle of the gold-plated brass part with the test oil", "setting": "solvent IPA", "result": "67.6 ± 3.6", "unit": "°"}, {"measurement": "contact angle of the gold-plated brass part with the test oil", "setting": "solvent MMCC (Biosane T212)", "result": "49.5 ± 2.5", "unit": "°"}]}]}
